# Data published in US7964607B2, “Pyrazolo[3,4-d]pyrimidine compounds” (Pfizer Inc., priority 2007, dated 2011).
# Biological target: T1, human recombinant PDE9 enzyme (Homo sapiens, UniProt O76083)
# T1 construct: made in house; host or cells: SF-9 insect cells
# Test: Phosphodiesterase 9 (PDE9) inhibitory activity, Scintillation Proximity (SPA) assay
# Assay type: biochemical
# Conditions: human recombinant PDE9 from SF-9 cells; 50 nM [3H]cGMP; room temperature, 30 min; Examples 3-114; read-out: G5678A (U): IC50
# Method in brief: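 Recombinant human PDE9 from SF-9 cell lysate supernatant, diluted so that ≤20% of [3H]cGMP substrate was hydrolysed to 5′GMP. Reaction started with enzyme and run 30 min at room temperature with 2% DMSO final. SPA beads were counted after >300 min; background came from a high concentration of a PDE inhibitor.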
# T1 sequence (O76083 whole entry): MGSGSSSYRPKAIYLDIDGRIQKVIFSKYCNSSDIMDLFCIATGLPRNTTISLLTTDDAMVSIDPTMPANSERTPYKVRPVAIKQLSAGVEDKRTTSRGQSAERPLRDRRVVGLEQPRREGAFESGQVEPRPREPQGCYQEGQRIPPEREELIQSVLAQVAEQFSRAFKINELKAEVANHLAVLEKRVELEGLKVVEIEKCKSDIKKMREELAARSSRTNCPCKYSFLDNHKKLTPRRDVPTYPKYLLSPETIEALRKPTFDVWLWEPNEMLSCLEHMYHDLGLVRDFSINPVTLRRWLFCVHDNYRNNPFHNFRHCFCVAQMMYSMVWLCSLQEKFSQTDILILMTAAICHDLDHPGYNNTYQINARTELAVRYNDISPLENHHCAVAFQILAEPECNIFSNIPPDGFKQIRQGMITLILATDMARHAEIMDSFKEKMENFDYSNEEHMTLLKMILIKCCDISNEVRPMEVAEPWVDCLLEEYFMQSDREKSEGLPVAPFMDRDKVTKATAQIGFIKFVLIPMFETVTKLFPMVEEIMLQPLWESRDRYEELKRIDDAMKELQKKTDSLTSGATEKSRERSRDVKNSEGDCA
row,Compound,IC50 [µM]
1,"Cc1cccc(CN2C[C@@H](C)[C@H](c3nc4c(cnn4C4CCOCC4)c(=O)[nH]3)C2)n1 [Example 95, 6-{(3S,4S)-4-methyl-1-[(6-methylpyridin-2-yl)methyl]pyrrolidin-3-yl}-1-(tetrahydro-2H-pyran-4-yl)-1,5-dihydro-4H-pyrazolo[3,4-d]pyrimidin-4-one]",0.00392
2,"Cc1ccc(CN2C[C@@H](C)[C@H](c3nc4c(cnn4C4CCCC4)c(=O)[nH]3)C2)cn1 (racemic) [Example 20, 1-cyclopentyl-6-{(3,4-trans)-4-methyl-1-[(6-methylpyridin-3-yl)methyl]pyrrolidin-3-yl}-1,5-dihydro-4H-pyrazolo[3,4-d]pyrimidin-4-one]",0.00706
3,CC[C@@H]1CN(Cc2cnc(C)nc2)C[C@H]1c1nc2c(cnn2C2CCOCC2)c(=O)[nH]1 (racemic) [Example 74],0.00614
4,"CC(C)n1ncc2c(=O)[nH]c([C@@H]3CN(Cc4ccc5nccnc5c4)C[C@H]3C)nc21 [Example 36, 1-isopropyl-6-[(3S,4S)-4-methyl-1-(quinoxalin-6-ylmethyl)pyrrolidin-3-yl]-1,5-dihydro-4H-pyrazolo[3,4-d]pyrimidin-4-one]",0.00508
5,"CC[C@@H]1CN(Cc2cccc(C#N)c2)C[C@H]1c1nc2c(cnn2C2CCOCC2)c(=O)[nH]1 [Example 113, 3-({(3S,4S)-3-ethyl-4-[4-oxo-1-(tetrahydro-2H-pyran-4-yl)-4,5-dihydro-1H-pyrazolo[3,4-d]pyrimidin-6-yl]pyrrolidin-1-yl}methyl)benzonitrile]",< 0.001
6,"C[C@@H]1CN(Cc2ccc3ccccc3n2)C[C@H]1c1nc2c(cnn2C2CCCC2)c(=O)[nH]1 (racemic) [Example 9, 1-cyclopentyl-6-[(3,4-trans)-4-methyl-1-(quinolin-2-ylmethyl)pyrrolidin-3-yl]-1,5-dihydro-4H-pyrazolo[3,4-d]pyrimidin-4-one]",0.00284
7,"C[C@@H]1CN(Cc2nc3cnccc3n2C)C[C@H]1c1nc2c(cnn2C2CCOCC2)c(=O)[nH]1 [Example 81, 6-{(3S,4S)-4-methyl-1-[(1-methyl-1H-imidazo[4,5-c]pyridin-2-yl)methyl]pyrrolidin-3-yl}-1-(tetrahydro-2H-pyran-4-yl)-1,5-dihydro-4H-pyrazolo[3,4-d]pyrimidin-4-one]",0.00292
8,"Cc1cnc(CN2C[C@@H](C)[C@H](c3nc4c(cnn4C4CCCC4)c(=O)[nH]3)C2)cn1 [Example 38, 1-cyclopentyl-6-{(3S,4S)-4-methyl-1-[(5-methylpyrazin-2-yl)methyl]pyrrolidin-3-yl}-1,5-dihydro-4H-pyrazolo[3,4-d]pyrimidin-4-one]",0.00575
9,"O=c1[nH]c([C@@H]2CN(Cc3ccc4nccnc4c3)C[C@H]2C(F)(F)F)nc2c1cnn2C1CCCC1 (racemic) [Example 52, 1-cyclopentyl-6-[(3,4-trans)-1-(quinoxalin-6-ylmethyl)-4-(trifluoromethyl)pyrrolidin-3-yl]-1,5-dihydro-4H-pyrazolo[3,4-d]pyrimidin-4-one]",0.026
10,"C[C@@H]1CN(Cc2cnn3c2CCCC3)C[C@H]1c1nc2c(cnn2C2CCCC2)c(=O)[nH]1 [Example 48, 1-cyclopentyl-6-[(3S,4S)-4-methyl-1-(4,5,6,7-tetrahydropyrazolo[1,5-a]pyridin-3-ylmethyl)pyrrolidin-3-yl]-1,5-dihydro-4H-pyrazolo[3,4-d]pyrimidin-4-one]",0.0407

# Same assay, conditions: human recombinant PDE9 from SF-9 cells; 50 nM [3H]cGMP; room temperature, 30 min; additional compounds Ex. 115-228; read-out: G5678A (U):IC50
row,Compound,IC50 [µM]
1,"C[C@@H]1CN(Cc2ccccc2Cl)C[C@H]1c1nc2c(cnn2C2CCCC2)c(=O)[nH]1 (racemic) [Example 219, 6-[(3,4-trans)-1-(2-chlorobenzyl)-4-methylpyrrolidin-3-yl]-1-cyclopentyl-1,5-dihydro-4H-pyrazolo[3,4-d]pyrimidin-4-one]",0.0484
2,"C[C@@H]1CN(Cc2cccc3nsnc23)C[C@H]1c1nc2c(cnn2C2CCCC2)c(=O)[nH]1 (racemic) [Example 221, 6-[(3,4-trans)-1-(2,1,3-benzothiadiazol-4-ylmethyl)-4-methylpyrrolidin-3-yl]-1-cyclopentyl-1,5-dihydro-4H-pyrazolo[3,4-d]pyrimidin-4-one]",0.0127
3,"C[C@@H]1CN(Cc2cc3ccccc3nn2)C[C@H]1c1nc2c(cnn2C2CCCC2)c(=O)[nH]1 (racemic) [Example 182, 6-[(3,4-trans)-1-(cinnolin-3-ylmethyl)-4-methylpyrrolidin-3-yl]-1-cyclopentyl-1,5-dihydro-4H-pyrazalo[3,4-d]pyrimidin-4-one]",0.0225
4,"C[C@@H]1CN(Cc2nc3c(s2)CCCC3)C[C@H]1c1nc2c(cnn2C2CCCC2)c(=O)[nH]1 (racemic) [Example 190, 1-cyclopentyl-6-[(3,4-trans)-4-methyl-1-(4,5,6,7-tetrahydro-1,3-benzothiazol-2-ylmethyl)pyrrolidin-3-yl]-1,5-dihydro-4H-pyrazolo(3,4-d]pyrimidin-4-one]",0.0554
5,"C[C@@H]1CN(Cc2ccc3c(c2)OCCN3C)C[C@H]1c1nc2c(cnn2C2CCCC2)c(=O)[nH]1 (racemic) [Example 200, 1-cyclopentyl-6-{(3,4-trans)-4-methyl-1-[(4-methyl-3,4-dihydro-2H-1,4-benzoxazin-7-yl)methyl]pyrrolidin-3-yl}-1,5-dihydro-4H-pyrazolo[3,4-d]pyrimidin-4-one]",0.176
6,"C[C@@H]1CN(Cc2ccc(Cl)c(Cl)c2)C[C@H]1c1nc2c(cnn2C2CCCC2)c(=O)[nH]1 (racemic) [Example 220, 1-cyclopentyl-6-[(3,4-trans)-1-(3,4-dichlorobenzyl)-4-methylpyrrolidin-3-yl]-1,5-dihydro-4H-pyrazolo[3,4-d]pyrimidin-4-one]",0.028
7,"C[C@@H]1CN(Cc2cnn3c2CCC3)C[C@H]1c1nc2c(cnn2C2CCCC2)c(=O)[nH]1 (racemic) [Example 228, 1-cyclopentyl-6-[(3,4-trans)-1-(5,6-dihydro-4H-pyrrolo[1,2-b]pyrazol-3-ylmethyl)-4-methylpyrrolidin-3-yl]-1,5-dihydro-4H-pyrazolo[3,4-d]pyrimidin-4-one]",0.0491
8,C[C@@H]1CN(Cc2ccc(C(F)(F)F)cc2)C[C@H]1c1nc2c(cnn2C2CCCC2)c(=O)[nH]1 (racemic) [Example 225],0.0349
9,"COc1ccc(OC)c(CN2C[C@@H](C)[C@H](c3nc4c(cnn4C4CCCC4)c(=O)[nH]3)C2)c1 (racemic) [Example 144, 1-cyclopentyl-6-[(3,4-trans)-1-(2,5-dimethoxybenzyl)-4-methylpyrrolidin-3-yl]-1,5-dihydro-4H-pyrazolo[3,4-d]pyrimidin-4-one]",0.0996
10,"C[C@@H]1CN(Cc2cccc(-n3cccn3)c2)C[C@H]1c1nc2c(cnn2C2CCCC2)c(=O)[nH]1 (racemic) [Example 115, 1-cyclopentyl-6-{(3,4-trans)-4-methyl-1-[3-(1H-pyrazol-1-yl)benzyl]pyrrolidin-3-yl}-1,5-dihydro-4H-pyrazolo[3,4-d]pyrimidin-4-one]",0.0404
11,"C[C@@H]1CN(CCOCc2ccccc2)C[C@H]1c1nc2c(cnn2C2CCCC2)c(=O)[nH]1 (racemic) [Example 209, 6-{(3,4-trans)-1-[2-(benzyloxy)ethyl]-4-methylpyrrolidin-3-yl}-1-cyclopentyl-1,5-dihydro-4H-pyrazolo[3,4-d]pyrimidin-4-one]",0.0529
12,"C[C@@H]1CN(Cc2cccc3c2OCCO3)C[C@H]1c1nc2c(cnn2C2CCCC2)c(=O)[nH]1 (racemic) [Example 149, 1-cyclopentyl-6-[(3,4-trans)-1-(2,3-dihydro-1,4-benzodioxin-5-ylmethyl)-4-methylpyrrolidin-3-yl]-1,5-dihydro-4H-pyrazolo[3,4-d]pyrimidin-4-one]",0.0471
13,"Cc1cccc(CN2C[C@@H](C)[C@H](c3nc4c(cnn4C4CCCC4)c(=O)[nH]3)C2)c1 (racemic) [Example 160, 1-cyclopentyl-6-[(3,4-trans)-4-methyl-1-(3-methylbenzyl)pyrrolidin-3-yl]-1,5-dihydro-4H-pyrazolo[3,4-d]pyrimidin-4-one]",0.0434
